Columns and labels:
[1] = Stability of polymorphic form; format: physicochemical
[2] = Water sorption curve (DVS analysis at 25° C.); format: physicochemical; details: for Weight change in %: DVS analysis at 25° C.
Text: Water Sorption Curve of 5-amino-3-(2′,3′-di-O-acetyl-beta-D-ribofuranosyl)-3H-thiazolo[4,5-d]pyrimidin-2-one Amorphous Base (FIG. 6)
Water Sorption Curve of 5-amino-3-(2′,3′-di-O-acetyl-beta-D-ribofuranosyl)-3H-thiazolo[4,5-d]pyrimidin-2-one Maleate Salt (FIG. 7)

## CC(=O)O[C@@H]1[C@H](OC(C)=O)[C@@H](CO)O[C@H]1n1c(=O)sc2cnc(N)nc21.O=C(O)/C=C\C(=O)O [Form B, 5-Amino-3-(2′,3′-di-O-acetyl-beta-D-ribofuranosyl)-3H-thiazolo[4,5-d]pyrimidin-2-one maleate]
[1]
  Stability of polymorphic form (in words): particularly stable polymorphic form

## CC(=O)O[C@@H]1[C@H](OC(C)=O)[C@@H](CO)O[C@H]1n1c(=O)sc2cnc(N)nc21.O=C(O)/C=C\C(=O)O [5-amino-3-(2′,3′-di-O-acetyl-beta-D-ribofuranosyl)-3H-thiazolo[4,5-d]pyrimidin-2-one maleate]
[2]; 0-20% r.h.
  Weight change in %: 0.08%
[2]; 0-40% r.h.
  Weight change in %: 0.17%
[2]; 0-60% r.h.
  Weight change in %: 0.23%
[2]; 0-80% r.h.
  Weight change in %: 0.32%
[2]; 0-95% r.h.
  Weight change in %: 0.31%

## CC(=O)O[C@@H]1[C@H](OC(C)=O)[C@@H](CO)O[C@H]1n1c(=O)sc2cnc(N)nc21 [5-Amino-3-(2′,3′-di-O-acetyl-beta-D-ribofuranosyl)-3H-thiazolo[4,5-d]pyrimidin-2-one]
[2]
  Hygroscopicity (in words): hygroscopic
[2]; 0-20% r.h.
  Weight change in %: 0.50%
[2]; 0-40% r.h.
  Weight change in %: 0.86%
[2]; 0-60% r.h.
  Weight change in %: 1.55%
[2]; 0-80% r.h.
  Weight change in %: 3.07%
[2]; 0-95% r.h.
  Weight change in %: 4.68%
